Measurements from patent publication US20200223826A1, “Glucose-6-Phosphate Dehydrogenase (G6PD)-Modulating Agents And Methods Of Treating G6PD Deficiency” (The Board of Trustees of the Leland Stanford Junior …, priority 2017, published 2020).
Marks after values point to notes of the source that are not given here. Each block holds one molecule with its values, some of them ahead of it.

Key:
zebrafish embryos = assay: Pericardial edema in zebrafish embryos; format: in vivo; conditions: 50 μg/ml at 24 hpf
Protocol: Embryos were dechorinated with pronase at 24 hours post fertilization (hpf) and treated with 50 μg/ml of chloroquine and/or AG1 by directly adding the compounds to the well. For ROS measurements, embryos were incubated with compounds for 2 hours, and then the ROS detecting reagent (CM-H2DCFDA) was added at a final concentration of 500 ng/ml to the well for a total treatment time of 5 hours. One embryo was placed to each well of a black, opaque 96-well plate. The florescence was analyzed with excitation/emission at 485/525 nm. After ROS assays, embryos at about 32 hpf were pooled and lysed in buffer containing 50 mM Tris (pH 7.4), 150 mM NaCl, 1 mM EDTA, 0.1% NP-40, and protease inhibitor cocktail, which was followed by three cycles of freeze and thawing in liquid nitrogen. The lysate was centrifuged at 14,000 rpm at 4° C. for 15 minutes. Total protein concentration in the supernatants (total lysate) was determined by Bradford method. 50 μg of total lysate was loaded onto 10% SDS-PAGE gels and the protein level was examined by Western blot using anti-G6PD antibody (Abcam (G6PD: AB87230)). 10 μg of total lysate was used for enzymatic assay. 50 μg of the lysate was used to measure NADPH levels using a NADPH quantification kit (Biovision), according to the manufacturer's instructions.
Live embryos were anesthetized and mounted in 3% methylcellulose. Embryos were imaged with a Leica M205FA microscope equipped with a 1.0× Plan Apochromatic objective and a SPOT Flex camera or a Leica DM4500B compound microscope equipped with a QImaging Retiga-SRV camera. For hemoglobin staining, fixed embryos were stained with o-dianisidine as previously reported (10), cleared, mounted in 100% glycerol, and imaged with a Leica M205FA microscope equipped with a 1.0× Plan Apochromatic objective and a SPOT Flex camera. All images were captured using SPOT or MetaMorph imaging software (Diagnostic Imaging Inc.) and processed in Photoshop (Adobe). Adjustments were limited to brightness levels and cropping. Analysis was carried out by an observer blinded to the experimental conditions.

Canton G6PD = target: T1, Canton G6PD (Homo sapiens, UniProt P11413, R459L); assay: Canton G6PD enzyme activity, diaphorase-coupled assay; format: biochemical; conditions: Canton G6PD
T1 construct: His (pET-28a) (N, cleaved yes); made in house; host or cells: E. coli C43 (DE3)
Protocol: (§1) Enzyme activity was measured by monitoring NADPH production, which was coupled with diaphorase converting resazurin to fluorescent resorufin (excitation at 565 nm and emission at 590 nm); fluorescent signal was thus proportional to G6PD activity. Assays were performed at 25° C. and run for 5 minutes in buffer containing 50 mM Tris (pH 7.4), 0.5 mM EDTA, 3.3 mM MgCl2, 1 U/ml diaphorase, 0.1 mM resazurin. 10 ng of recombinant enzymes or 10 μg of cell lysates was used for the assay with 10 μM NADP^+ (Sigma) as cofactor and 100 μM G6P (Sigma) as substrate. Steady-state kinetic parameters were obtained by varying concentrations of NADP^+ (0-10 μM) with a constant concentration of G6P (100 μM) and similarly for G6P (0-100 μM) with a constant concentration of NADP^+ (10 μM) with 10 ng of recombinant enzymes. Data analysis was performed using GraphPad Prism software v.6 (GraphPad Software, La Jolla, Calif. USA). Kinetic parameters were obtained by fitting the data to the Michaelis-Menten equation.
The diaphorase-coupled enzyme assay as described above was used to screen a library of compounds for small molecule activators. The compounds were added to Canton G6PD enzyme reaction mixture at a final concentration of 16.67 μM using Caliper Life Sciences Staccato system with a Twister II robot and a Sciclone ALH3000 (Caliper Life Sciences, Alameda, Calif. USA) integrated with a V&P Scientific pin tool, which was followed by incubation for 3 hours. Addition of G6P then initiated the reaction, which was run for 2.5 minutes. The fluorescent signals were recorded 4 times during the run using Molecular Devices AnalystGT (Molecular Devices, Sunnyvale, Calif. USA). Any compounds showing 30% activation of the enzyme were rescreened in a dose-dependent manner (0-30 μM, duplicate) to identify potential hits.
(§2) Based on preliminary results with compound AG1, a variety of compounds of interest were prepared and assessed in G6PD enzyme activation assays, according to the methods described herein.

[1] = target: T2, wt G6PD obtained from a blood sample (Homo sapiens, UniProt P11413); assay: G6PD enzyme activation on wt G6PD from a blood sample; format: biochemical; conditions: 100 uM compound
T2 construct: tissue Stanford Blood Center; host or cells: blood / erythrocytes
Protocol: Enzyme activity was measured by monitoring NADPH production, which was coupled with diaphorase converting resazurin to fluorescent resorufin (excitation at 565 nm and emission at 590 nm); fluorescent signal was thus proportional to G6PD activity. Assays were performed at 25° C. and run for 5 minutes in buffer containing 50 mM Tris (pH 7.4), 0.5 mM EDTA, 3.3 mM MgCl2, 1 U/ml diaphorase, 0.1 mM resazurin. 10 ng of recombinant enzymes or 10 μg of cell lysates was used for the assay with 10 μM NADP^+ (Sigma) as cofactor and 100 μM G6P (Sigma) as substrate. […]
De-identified blood samples were obtained from the Stanford Blood Center. […] G6PD activity was measured (Beutler E. Red cell metabolism: A manual of biochemical methods (3rd edition). Grune & Stratton (1984)). […] Hemoglobin release in the supernatant was monitored by measuring absorbance at 540 nm. […] After wash, the samples were lysed with 0.1% Triton X-100 (final concentration), and the florescence was analyzed with excitation/emission at 485/525 nm. GSH measurement was determined using a Cayman glutathione assay kit (Cayman Chemicals, 703002). […] The absorbance was read at 412 nm. For storage assay, a 5% erythrocyte suspension was stored at 4° C. with and without 1 μM AG1, and hemolysis and G6PD activity were monitored every week for 28 days to examine whether AG1 improves preservation of erythrocytes over time. […]

Canton W509A G6PD = target: T3, Canton W509A G6PD (Homo sapiens, UniProt P11413, R459L/W509A); assay: Canton W509A G6PD enzyme activation; format: biochemical
T3 construct: His (pET-28a) (N, cleaved yes); made in house; host or cells: E. coli C43 (DE3)
Protocol: as §1, §2

G6PD = G6PD activation activity, compounds with various linkers; format: biochemical; conditions: 100 uM compound
Protocol: Enzyme activity was measured by monitoring NADPH production, which was coupled with diaphorase converting resazurin to fluorescent resorufin (excitation at 565 nm and emission at 590 nm); fluorescent signal was thus proportional to G6PD activity. Assays were performed at 25° C. and run for 5 minutes in buffer containing 50 mM Tris (pH 7.4), 0.5 mM EDTA, 3.3 mM MgCl2, 1 U/ml diaphorase, 0.1 mM resazurin. 10 ng of recombinant enzymes or 10 μg of cell lysates was used for the assay with 10 μM NADP^+ (Sigma) as cofactor and 100 μM G6P (Sigma) as substrate. […] Data analysis was performed using GraphPad Prism software v.6 (GraphPad Software, La Jolla, Calif. USA).

[2] = test system: point mutants of the Canton variant of G6PD; assay: Effect of point mutations of Canton G6PD on compound activity; format: biochemical, human; conditions: mutations on the side opposite the putative binding site
Protocol: The gene encoding wild-type (WT) G6PD was inserted into the pET-28a vector, using NdeI and SalI restriction sites by polymerase chain reaction (PCR). Site-directed mutagenesis to generate G6PD variants was performed using appropriate primer sets according to the manufacturer's guidelines (Agilent). All constructs were verified by sequencing.
as §1, with “equation. […]” for “equation.”

T3 sequence (P11413 whole entry R459L/W509A): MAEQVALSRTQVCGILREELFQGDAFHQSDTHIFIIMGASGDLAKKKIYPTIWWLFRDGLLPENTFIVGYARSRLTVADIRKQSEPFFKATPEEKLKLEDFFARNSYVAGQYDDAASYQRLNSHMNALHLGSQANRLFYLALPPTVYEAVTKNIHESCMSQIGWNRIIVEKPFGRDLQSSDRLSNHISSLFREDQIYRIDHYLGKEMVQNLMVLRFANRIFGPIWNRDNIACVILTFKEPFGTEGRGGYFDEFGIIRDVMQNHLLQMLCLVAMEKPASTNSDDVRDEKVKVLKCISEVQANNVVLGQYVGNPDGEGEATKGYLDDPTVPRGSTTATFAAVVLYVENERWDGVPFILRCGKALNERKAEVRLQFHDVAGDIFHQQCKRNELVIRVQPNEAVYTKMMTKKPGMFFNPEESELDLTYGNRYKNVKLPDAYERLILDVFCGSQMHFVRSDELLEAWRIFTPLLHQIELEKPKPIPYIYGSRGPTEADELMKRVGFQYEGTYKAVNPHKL
T2 sequence (P11413 2-515 limits assumed): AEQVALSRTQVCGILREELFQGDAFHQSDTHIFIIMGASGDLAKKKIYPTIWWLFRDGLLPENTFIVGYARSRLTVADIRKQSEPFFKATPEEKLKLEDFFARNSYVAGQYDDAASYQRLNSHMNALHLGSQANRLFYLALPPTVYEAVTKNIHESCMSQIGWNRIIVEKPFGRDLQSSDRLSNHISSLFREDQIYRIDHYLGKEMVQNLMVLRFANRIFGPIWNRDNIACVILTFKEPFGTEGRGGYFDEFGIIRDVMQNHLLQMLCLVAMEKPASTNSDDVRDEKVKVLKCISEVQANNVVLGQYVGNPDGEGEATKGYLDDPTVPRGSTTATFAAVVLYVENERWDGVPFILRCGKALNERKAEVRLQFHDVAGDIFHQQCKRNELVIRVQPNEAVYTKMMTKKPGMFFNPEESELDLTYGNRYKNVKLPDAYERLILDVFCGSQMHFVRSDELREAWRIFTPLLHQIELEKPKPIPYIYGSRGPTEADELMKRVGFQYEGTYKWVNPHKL
T1 sequence (P11413 whole entry R459L): as the sequence (P11413 whole entry R459L/W509A) above, with A509W counted along it

Molecule: CCN(CC)CCCC(C)Nc1ccnc2cc(Cl)ccc12 (stereo not drawn) [chloroquine, reference compound]
- effect of chloroquine on embryos (zebrafish embryos): led to pericardial edema and increased ROS levels

- AC50 (Canton G6PD): 74 µM
- Amax (Canton G6PD): 2.0
- enzyme activity at 100 µM [1]: 154%
- AC50 (Canton W509A G6PD): 58 µM
- Amax (Canton W509A G6PD): 3.8
Molecule: c1cc(CNCCc2ccc3c(c2)OCO3)c2c(CNCCc3ccc4c(c3)OCO4)cccc2c1 [AR4-078]

Molecule: 2-[2-(1H-indol-3-yl)ethylamino]ethanethiol [AG1]
- Enzyme activity (%) (G6PD): 156%^c
- Enzyme activity (%) [1]: 127%
- effect of mutations on AC50 [2]: no effect on AC50
